In patent publication US20200392239A1, “USE OF A MULTIMERIC ANTI-DR5 BINDING MOLECULE IN COMBINATION WITH A CHEMOTHERAPEUTIC AGENT FOR TREATING CANCER” (IGM Biosciences, Inc., priority 2018, published 2020):

Tests used:
[1] = reason for not progressing in clinical development; cited from earlier work
[2] = tested on: HCT15 tumor cells; test: HCT15 tumor model in athymic nude mice (IgG resistant colon tumor model); type: in vivo; details: 3 mg/kg IgM 5 times daily i.v.; compared with 3 mg/kg anti-DR5 IgG and 80 mg/kg Irinotecan
Method: Combination therapy with an anti-DR5 IgM antibody and standard of care Irinotecan was assessed in an HCT15 tumor model as follows.
In the first experiment, anti-DR5 IgG, anti-DR5 IgM, and Irinotecan monotherapies were compared. Athymic nude mice were subcutaneously implanted with 1×10^7 HCT15 tumor cells.
When the tumors reached 150-200 mm^3, the animals were dosed intravenously with either vehicle 5 times daily, 3 mg/kg of anti-DR5 IgM 5 times daily, 80 mg/kg of Irinotecan (Sigma I1406) 3 times within the first week, or the combined anti-DR5 IgM and Irinotecan dosing regimens.

In the case of `CN(C)CC[C@H](CSc1ccccc1)Nc1ccc(S(=O)(=O)NC(=O)c2ccc(N3CCN(Cc4ccccc4-c4ccc(Cl)cc4)CC3)cc2)cc1[N+](=O)[O-]` [ABT-737, 4-{4-[(4′-Chloro-2-biphenylyl)methyl]-1-piperazinyl}-N-[(4-{[(2R)-4-(dimethylamino)-1-(phenylsulfanyl)-2-butanyl]amino}-3-nitrophenyl)sulfonyl]benzamide], the bioavailability [1] is listed as “low” and the solubility [1] is listed as “low”.

In the case of `CC1(C)CCC(c2ccc(Cl)cc2)=C(CN2CCN(c3ccc(C(=O)NS(=O)(=O)c4ccc(N[C@H](CCN5CCOCC5)CSc5ccccc5)c(S(=O)(=O)C(F)(F)F)c4)cc3)CC2)C1` [ABT-263, 4-(4-{[2-(4-Chlorophenyl)-5,5-dimethyl-1-cyclohexen-1-yl]methyl}-1-piperazinyl)-N-[(4-{[(2R)-4-(4-morpholinyl)-1-(phenylsulfany)-2-butanyl]amino}-3-[(trifluoromethyl)sulfonyl]phenyl)sulfonyl]benzamide], the side effects [1] is listed as “dose-limiting side effects”.

B1: anti-DR5 IgM Mab #2: anti-DR5 IgM comprising VH and VL SEQ ID NO: 5 and SEQ ID NO: 6, constructed as in US 2018-0009897 (antibody, V domains shown)
VH: QVQLQESGPGLVKPSQTLSLTCTVSGGSISSGDYFWSWIRQLPGKGLECIGHIHNSGTTYYNPSLKSRVTISVDTSKKQFSLRLSSVTAADTAVYYCARDRGGDYYYGMDVWGQGTTVTVSS
VL: EIVLTQSPGTLSLSPGERATLSCRASQGISRSYLAWYQQKPGQAPSLLIYGASSRATGIPDRFSGSGSGTDFTLTISRLEPEDFAVYYCQQFGSSPWTFGQGTKVEIK
modifications: IgM constant regions
In the case of B1, the “efficacy of monotherapies (tumor volume, overall survival)” value [2] is reported as “most effective”.
